Literature values, collected in patent US20070275008A1, “Synergistic Diabetic Phyto-Nutraceutical Composition” (priority 2006, published 2007).

What was measured:
[1] = system: bacterial resistance mechanism against the berberine antimicrobial; conditions: in vitro; in the presence of 5′-MHC
[2] = system: hepatic toxicity induced by paracetamol, prednisolone and bromobenzene; conditions: mice; pre-treatment during ten days

Structure (SMILES)	accumulation of berberine in the cells [1]	hepatic toxicity induced by paracetamol, prednisolone and bromobenzene [2]
COc1cc([C@H]2Oc3cc(-c4cc(=O)c5c(O)cc(O)cc5o4)cc(OC)c3O[C@@H]2CO)ccc1O (racemic) [5′-MHC, 5′-methoxyhydnocarpin]	strong increase of accumulation of berberine in the cells	–
COc1cc(/C=C/C(=O)[O-])ccc1O.[Na+] [sodium ferulate]	–	improved the hepatic toxicity
